According to patent publication US7253144B2, “Method for producing by cell-free protein synthesis system using thioredoxin-fused protein expression vector” (Riken, priority 2002, dated 2007):

Legend:
[1] = molecular target: thioredoxin-fused β2AR-Gs and liposome complex; assay: Ligand binding saturation experiment with [3H]DHA on reconstituted membrane fraction; design: species or system human; conditions: average of three independent experiments; 0 to 25 nM [3H]DHA, 25° C., 60 minutes; read-out: binding constant (Kd value), average
Method: Subsequently, PBS was added to dilute the detergent, and 10% β-dodecylmaltoside (Nacalaitesque) was added dropwise to make the final concentration 1%. […] A complex of the reconstituted thioredoxin-fused β2AR-Gs after completion of the dialysis and the liposome was centrifuged for 1 hours at 100,000×g and 4° C., and the resultant precipitation fraction (reconstituted membrane fraction) was suspended in 50 μl of an incubation buffer (75 mM Tris-HCl (pH7.4), 12.5 mM MgCl2, 2 mM EDTA).
The ligand binding saturation experiment was conducted by incubating this reconstituted membrane fraction (complex of thioredoxin-fused β2AR-Gs and liposome) together with 0 to 25 nM tritium-labeled Dihidroalprenolol ([^3H]DHA) in 200 μl as a final volume of the incubation buffer at 25° C. for 60 minutes. A competition experiment was conducted by incubating the reconstituted membrane fraction described above together with 10 nM [^3H]DHA in the presence or absence of 10^−8 to 10^−2 MAlprenolol (Sigma).

[2] = molecular target: T1, human β2AR expressed in an insect cell (Sf9 cell) (Homo sapiens, UniProt P07550); assay: Ligand binding saturation experiment with [3H]DHA, positive control receptor; conditions: n=1, read-out: binding constant (Kd value)
T1 construct: expressed in transfected cells; host or cells: Sf9 insect cells
T1 sequence (P07550 whole entry): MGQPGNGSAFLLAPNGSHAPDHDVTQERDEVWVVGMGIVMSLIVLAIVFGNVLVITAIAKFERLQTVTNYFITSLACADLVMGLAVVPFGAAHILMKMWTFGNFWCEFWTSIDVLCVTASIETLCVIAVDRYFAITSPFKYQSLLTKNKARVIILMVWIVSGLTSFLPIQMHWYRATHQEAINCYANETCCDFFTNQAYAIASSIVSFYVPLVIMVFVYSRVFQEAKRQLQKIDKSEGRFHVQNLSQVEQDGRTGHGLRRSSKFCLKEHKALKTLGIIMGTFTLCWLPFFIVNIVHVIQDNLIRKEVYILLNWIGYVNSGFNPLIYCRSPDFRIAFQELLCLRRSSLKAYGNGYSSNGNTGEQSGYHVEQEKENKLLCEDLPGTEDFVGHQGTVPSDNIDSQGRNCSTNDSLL

Kd [1]: 5.5 ± 1.1 nM
Kd [2]: 3.9 nM
Structure (SMILES): CCCc1ccccc1OCC(O)CNC(C)C (centres unmarked) [[^3H]DHA, Dihidroalprenolol]
